# Literature values, collected in US20120288569A1 (priority 2003, published 2012).
# Assays:
# [1] = tested on: calcification in aortas and kidneys of rats; settings: rats treated with large amount of vitamin D3
smiles,measurement,setting,value
"O=P(O)(O)OP(=O)(O)O [PPi, pyrophosphate]",uptake by the apatite crystals,PPi at 2 μm/L concentration,rapidly and almost completely taken up
same,"concentration that binds strongly to crystals of hydroxyapatite, inhibiting further precipitation of calcium phosphate",in vitro,≥ 0.1 µM
same,effect on calcification in aortas and kidneys,[1],inhibits calcification
